Measured values published in patent US20090062537A1, “N-Formyl Hydrozyamine Compounds” (priority 2006, published 2009).
Positions count from the first letter of the chain named. Converted amounts (≈) assume the structure as drawn.

Assays:
[1] = target: T1, Streptococcus pneumoniae peptide deformylase, wild type (W.T.) (Streptococcus pneumoniae serotype 4, UniProt Q9F2F0); assay: Inhibition of S. pneumoniae peptide deformylase activity, wild type enzyme; assay type: biochemical; details: PDF W.T.
T1 sequence (Q9F2F0 1-203): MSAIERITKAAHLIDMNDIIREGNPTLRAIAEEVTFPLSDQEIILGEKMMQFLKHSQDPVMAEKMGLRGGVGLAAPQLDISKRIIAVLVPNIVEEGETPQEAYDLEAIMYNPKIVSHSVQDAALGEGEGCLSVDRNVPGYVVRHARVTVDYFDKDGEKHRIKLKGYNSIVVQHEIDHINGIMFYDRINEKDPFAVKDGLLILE
Protocol: (§1) A PDF/FDH coupled assay (Lazennec et al., Anal. Biochem., Vol. 224, pp. 180-182 (1997)) is used. In this coupled assay, the formate released by PDF from its substrate fMAS is oxidized by the coupling enzyme FDH, reducing one molecule of NAD^+ to NADH, which causes an increase in absorption at 340 nm. All assays are carried out at room temperature in a buffer of 50 mM HEPES, pH 7.2, 10 mM NaCl, 0.2 mg/mL BSA, In half-area 96-well microtiter plates (Corning). The reaction is initiated by adding a mixture of 0.5 Unit/mL FDH, 1 mM NAD^+, and fMAS at the desired concentration. To determine IC50 (the concentration needed to inhibit 50% of enzyme activity) values, PDF is pre-incubated for 10 minutes with varying concentrations of the inhibitor, and the deformylation reaction is initiated by the addition of reaction mixture containing 4 mM fMAS. The initial reaction velocity, y, is measured as the initial rate of absorption increase at […] using a SpectraMax plate reader (Molecular Devices, Sunnyvale, Calif.). The Inhibitor concentration [In] at which 50% of the enzyme activity is inhibited, IC50, is calculated using the following formula:
(§2) where yo is the reaction velocity in the absence of inhibitor. Solving this equation for IC50 at the [In] when y=yo/2 yields IC50. The IC50 is calculated based on a nonlinear least-square regression fit using a commercial software package (Deltapoint, Inc., Chicago, Ill.).
(§3) Peptide deformylase activity is essential for growth of S. pneumoniae. The mutants that are selected on NVP-LBM415 were not compromised for growth in vitro, therefore the mutations in defB that confer resistance to these compounds would not be expected to dramatically alter enzymatic activity. To test this hypothesis, the kinetics of peptide deformylase activity are determined using the substrate f-Met-Ala-Ser.
(§4) To investigate further, the IC50s and MICs of specific pairs of compounds differing only in this feature are determined.

[2] = target: T2, Streptococcus pneumoniae peptide deformylase G70V mutant (Streptococcus pneumoniae serotype 4, UniProt Q9F2F0, G70V); assay: Inhibition of S. pneumoniae peptide deformylase activity, G70V mutant enzyme; assay type: biochemical; details: PDF G70V
T2 sequence (Q9F2F0 1-203 G70V): T1 sequence (Q9F2F0 1-203) with G70V
Protocol: as §1, §2, §3, §4

[3] = test system: Streptococcus pneumoniae (wild type PDF); assay: MIC, culture growth of S. pneumoniae with wild type PDF; assay type: cell-based; details: PDF W.T.
Protocol: (§5) Minimum inhibitory concentrations (MICs) are determined using the microdilution method In 96-well format plates. Compounds are suspended in DMSO at 5 or 10 mg/mL and stored at 4° C. until used. They are diluted in Mueller-Hinton Broth (MHB) or Trypticase Soy Broth (TSB) and used for MIC determination. The range of concentrations tested is 64-0.0625 μg/mL final concentration using a two-fold dilution system.
(§6) The inoculum is prepared from cells grown on Trypticase Soy Agar (TSA) and incubated overnight at 35° C., 5-10 colonies are used to inoculate MHB or TSB broths, and the culture is incubated overnight at 35° C. The overnight culture is diluted 1:10, incubated for 1 hour at 35° C., diluted to the appropriate inoculum size and applied to the wells containing broth and test compound. Inoculum sizes are 2×10^4 CFU/mL.
as §4

[4] = test system: Streptococcus pneumoniae PDF G70D mutant; assay: MIC, culture growth of S. pneumoniae PDF G70D mutant; assay type: cell-based; details: PDFG70DMUTANT
Protocol: as §5, §6, §4

[5] = test system: Streptococcus pneumoniae PDF G70V mutant; assay: MIC, culture growth of S. pneumoniae PDF G70V mutant; assay type: cell-based; details: PDFG70VMUTANT
Protocol: as §5, §6, §4

[6] = target: T3, Streptococcus pneumoniae peptide deformylase G70D mutant (Streptococcus pneumoniae serotype 4, UniProt Q9F2F0, G70D); assay: Inhibition of S. pneumoniae peptide deformylase activity, G70D mutant enzyme; assay type: biochemical; details: PDF G70D
T3 sequence (Q9F2F0 1-203 G70D): T1 sequence (Q9F2F0 1-203) with G70D
Protocol: as §1, §2, §3, §4

Row | Compound | IC50 [1] [nM] | IC50 [2] [nM] | MIC [3] [µg/mL] | MIC [4] [µg/mL] | MIC [5] [µg/mL] | IC50 [6] [nM]
1 | CCCC[C@H](CN(O)C=O)C(=O)N1C[C@@H](C(C)C)C[C@H]1C(=O)Nc1ccc(F)c[n+]1[O-] | 0.23 ± 0.04 | 1.78 | 1.42 ± 0.2 (≈ 3.24 µM) | 10.3 (≈ 23.4 µM) | 10.3 (≈ 23.5 µM) | 1.38 ± 0.78
2 | CCCC[C@H](CN(O)C=O)C(=O)N1C[C@@H](C(C)C)C[C@H]1C(=O)Nc1ccc(F)cn1 | 0.31 ± 0.04 | 1.01 | 1.43 ± 0.2 (≈ 3.38 µM) | 1.57 (≈ 3.72 µM) | 2.86 (≈ 6.77 µM) | 0.46
3 | O=CN(O)C[C@@H](CC1CCCC1)C(=O)N1C[C@H](F)C[C@H]1C(=O)Nc1cnccn1 | 0.25 ± 0.04 | 0.5 | 0.16 ± 0.1 (≈ 0.393 µM) | 0.25 (≈ 0.614 µM) | 0.33 (≈ 0.81 µM) | 0.34
4 | CCCC[C@H](CN(O)C=O)C(=O)N1C[C@H](C(C)C)C[C@H]1C(=O)Nc1ccc(F)cn1 | 0.27 ± 0.03 | 0.7 | 0.71 ± 0.1 (≈ 1.68 µM) | 1.07 (≈ 2.53 µM) | 1.43 (≈ 3.38 µM) | 0.25
5 | O=CN(O)C[C@@H](CC1CCCC1)C(=O)N1C[C@H](F)C[C@H]1C(=O)Nc1cncc[n+]1[O-] | 0.37 ± 0.02 | 2.05 | 0.29 ± 0.11 (≈ 0.685 µM) | 1 (≈ 2.36 µM) | 2.67 (≈ 6.31 µM) | 0.91
6 | CCCC[C@H](CN(O)C=O)C(=O)N1CCC[C@H]1C(=O)Nc1ccc(F)c[n+]1[O-] [reference compound] | 0.31 ± 0.03 | 1.35 | 0.45 ± 0.07 (≈ 1.14 µM) | 6.44 (≈ 16.2 µM) | 5.8 (≈ 14.6 µM) | 1.28
7 | CCCC[C@H](CN(O)C=O)C(=O)N1C[C@H](C(C)C)C[C@H]1C(=O)Nc1ccc(F)c[n+]1[O-] | 0.31 ± 0.03 | 1.56 | 0.64 ± 0.09 (≈ 1.46 µM) | 5.14 (≈ 11.7 µM) | 6.3 (≈ 14.4 µM) | 1.19
